Test results published in publication doi:10.1101/2023.11.24.568596v1 (biorxiv, 2023).
Each block holds one molecule with its values, some of them ahead of it.

Assays:
Details in all cases: binder
SLK = SLK (Homo sapiens, UniProt Q9H2G2)
TTK = target: T1, TTK (Homo sapiens, UniProt P33981)
T1 sequence (P33981 1-857): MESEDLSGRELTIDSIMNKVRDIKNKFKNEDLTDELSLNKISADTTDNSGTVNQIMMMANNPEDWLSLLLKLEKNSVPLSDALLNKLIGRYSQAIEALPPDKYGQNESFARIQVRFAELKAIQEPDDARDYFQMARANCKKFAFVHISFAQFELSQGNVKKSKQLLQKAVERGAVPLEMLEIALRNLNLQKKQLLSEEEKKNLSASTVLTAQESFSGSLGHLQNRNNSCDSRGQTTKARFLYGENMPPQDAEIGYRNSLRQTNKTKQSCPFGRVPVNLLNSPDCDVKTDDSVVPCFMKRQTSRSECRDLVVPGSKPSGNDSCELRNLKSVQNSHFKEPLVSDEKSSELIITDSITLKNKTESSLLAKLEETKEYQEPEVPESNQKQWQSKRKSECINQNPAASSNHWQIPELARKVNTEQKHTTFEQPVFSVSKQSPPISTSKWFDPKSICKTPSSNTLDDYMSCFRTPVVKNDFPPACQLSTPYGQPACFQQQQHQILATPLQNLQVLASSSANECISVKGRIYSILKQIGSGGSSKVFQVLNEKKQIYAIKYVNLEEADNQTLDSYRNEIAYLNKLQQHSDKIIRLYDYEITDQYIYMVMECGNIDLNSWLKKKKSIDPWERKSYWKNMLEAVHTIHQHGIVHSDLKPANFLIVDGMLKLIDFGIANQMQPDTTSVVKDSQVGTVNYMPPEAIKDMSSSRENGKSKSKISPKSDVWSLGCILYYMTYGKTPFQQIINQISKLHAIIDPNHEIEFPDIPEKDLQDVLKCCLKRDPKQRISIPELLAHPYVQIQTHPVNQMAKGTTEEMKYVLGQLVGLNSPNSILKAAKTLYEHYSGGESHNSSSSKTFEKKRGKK

TLK1 = target: T2, TLK1 (Homo sapiens, UniProt Q9UKI8)
T2 sequence (Q9UKI8 1-766): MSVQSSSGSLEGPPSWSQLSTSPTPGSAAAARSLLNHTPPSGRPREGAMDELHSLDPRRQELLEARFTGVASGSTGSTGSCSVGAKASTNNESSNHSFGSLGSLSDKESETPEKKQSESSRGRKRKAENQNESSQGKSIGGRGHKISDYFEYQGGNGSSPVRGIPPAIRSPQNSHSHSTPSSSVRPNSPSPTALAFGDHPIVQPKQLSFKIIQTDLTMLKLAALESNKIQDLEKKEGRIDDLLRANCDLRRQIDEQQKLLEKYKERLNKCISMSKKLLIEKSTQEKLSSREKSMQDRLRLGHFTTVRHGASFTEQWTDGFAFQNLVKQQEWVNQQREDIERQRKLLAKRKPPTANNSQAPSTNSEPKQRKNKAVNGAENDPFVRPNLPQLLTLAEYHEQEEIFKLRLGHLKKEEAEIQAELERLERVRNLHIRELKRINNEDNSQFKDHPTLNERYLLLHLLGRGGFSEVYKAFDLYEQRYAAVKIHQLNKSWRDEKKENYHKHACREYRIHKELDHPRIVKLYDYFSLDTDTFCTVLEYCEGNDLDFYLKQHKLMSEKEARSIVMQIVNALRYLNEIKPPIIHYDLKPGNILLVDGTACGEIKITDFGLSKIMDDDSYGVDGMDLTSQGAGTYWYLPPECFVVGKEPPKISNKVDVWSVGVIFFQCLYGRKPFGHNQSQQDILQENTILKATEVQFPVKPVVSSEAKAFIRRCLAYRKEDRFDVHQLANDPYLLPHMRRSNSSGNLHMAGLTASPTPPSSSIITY

Wnk1 = Wnk1 (Homo sapiens, UniProt Q9H4A3)
VRK1 = target: T3, VRK1 (Homo sapiens, UniProt Q99986)
T3 sequence (Q99986 1-396): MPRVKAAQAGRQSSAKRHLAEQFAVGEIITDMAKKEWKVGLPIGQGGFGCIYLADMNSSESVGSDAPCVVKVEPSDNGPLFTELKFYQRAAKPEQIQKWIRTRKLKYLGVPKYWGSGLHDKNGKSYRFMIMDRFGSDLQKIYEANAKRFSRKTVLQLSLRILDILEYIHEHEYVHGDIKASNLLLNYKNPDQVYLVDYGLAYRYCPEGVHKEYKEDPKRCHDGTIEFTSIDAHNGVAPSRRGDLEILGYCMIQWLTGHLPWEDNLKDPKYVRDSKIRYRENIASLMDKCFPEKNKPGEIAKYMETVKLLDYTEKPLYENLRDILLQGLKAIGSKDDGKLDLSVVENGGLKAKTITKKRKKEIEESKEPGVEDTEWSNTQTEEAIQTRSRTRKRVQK

STLK3 = STLK3 (Homo sapiens, UniProt Q9UEW8)
TAF1 = TAF1 (Homo sapiens, UniProt P21675)
Sequence of TAF1 (P21675 whole entry): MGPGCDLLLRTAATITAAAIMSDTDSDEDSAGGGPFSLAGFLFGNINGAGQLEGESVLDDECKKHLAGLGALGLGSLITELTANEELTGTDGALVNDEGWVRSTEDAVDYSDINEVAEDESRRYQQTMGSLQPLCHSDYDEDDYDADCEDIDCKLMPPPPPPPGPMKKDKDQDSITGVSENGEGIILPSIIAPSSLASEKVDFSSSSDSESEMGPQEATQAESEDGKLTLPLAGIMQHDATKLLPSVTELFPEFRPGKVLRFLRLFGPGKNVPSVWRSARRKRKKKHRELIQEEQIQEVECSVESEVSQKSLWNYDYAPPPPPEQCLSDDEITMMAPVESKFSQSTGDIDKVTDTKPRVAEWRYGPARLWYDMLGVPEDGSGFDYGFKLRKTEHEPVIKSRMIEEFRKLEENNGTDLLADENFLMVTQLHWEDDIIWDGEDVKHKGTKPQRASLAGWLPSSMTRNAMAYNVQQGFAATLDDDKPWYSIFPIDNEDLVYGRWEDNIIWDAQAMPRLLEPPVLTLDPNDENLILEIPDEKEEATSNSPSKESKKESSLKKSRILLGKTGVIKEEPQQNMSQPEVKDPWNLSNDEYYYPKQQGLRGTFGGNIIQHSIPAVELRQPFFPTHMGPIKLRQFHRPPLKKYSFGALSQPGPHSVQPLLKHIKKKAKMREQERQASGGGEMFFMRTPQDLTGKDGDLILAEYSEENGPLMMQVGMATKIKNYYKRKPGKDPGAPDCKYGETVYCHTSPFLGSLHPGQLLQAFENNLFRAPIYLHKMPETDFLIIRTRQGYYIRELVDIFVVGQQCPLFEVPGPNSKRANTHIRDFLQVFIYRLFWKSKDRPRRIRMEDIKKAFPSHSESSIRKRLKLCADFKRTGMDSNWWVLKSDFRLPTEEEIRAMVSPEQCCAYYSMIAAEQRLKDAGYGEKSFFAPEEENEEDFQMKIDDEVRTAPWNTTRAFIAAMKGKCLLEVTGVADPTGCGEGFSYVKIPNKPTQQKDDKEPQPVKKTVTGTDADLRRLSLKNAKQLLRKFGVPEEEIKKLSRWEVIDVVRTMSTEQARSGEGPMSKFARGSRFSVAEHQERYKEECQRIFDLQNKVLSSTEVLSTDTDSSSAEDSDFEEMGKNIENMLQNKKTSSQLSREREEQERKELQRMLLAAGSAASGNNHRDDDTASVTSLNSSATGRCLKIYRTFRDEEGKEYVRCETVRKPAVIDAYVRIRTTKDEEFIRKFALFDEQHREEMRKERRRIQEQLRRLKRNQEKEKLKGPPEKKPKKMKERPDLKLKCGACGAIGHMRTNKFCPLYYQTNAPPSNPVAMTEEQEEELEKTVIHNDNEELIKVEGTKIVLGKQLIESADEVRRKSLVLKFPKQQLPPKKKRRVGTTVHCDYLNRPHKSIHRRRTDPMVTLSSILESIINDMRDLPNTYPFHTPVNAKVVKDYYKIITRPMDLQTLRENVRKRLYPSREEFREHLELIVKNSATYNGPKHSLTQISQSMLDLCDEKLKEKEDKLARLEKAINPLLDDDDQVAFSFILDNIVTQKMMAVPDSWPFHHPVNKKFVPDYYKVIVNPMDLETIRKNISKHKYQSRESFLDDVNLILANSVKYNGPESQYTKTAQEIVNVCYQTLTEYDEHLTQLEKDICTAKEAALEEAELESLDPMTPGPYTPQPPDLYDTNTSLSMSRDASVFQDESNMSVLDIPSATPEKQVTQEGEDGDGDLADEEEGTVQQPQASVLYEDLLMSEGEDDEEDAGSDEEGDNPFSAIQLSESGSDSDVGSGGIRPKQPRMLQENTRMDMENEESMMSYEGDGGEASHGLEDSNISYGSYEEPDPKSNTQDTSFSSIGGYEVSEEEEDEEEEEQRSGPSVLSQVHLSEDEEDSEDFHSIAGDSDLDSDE

PAK1 = PAK1 (Homo sapiens, UniProt Q13153)
Sequence of PAK1 (Q13153 whole entry): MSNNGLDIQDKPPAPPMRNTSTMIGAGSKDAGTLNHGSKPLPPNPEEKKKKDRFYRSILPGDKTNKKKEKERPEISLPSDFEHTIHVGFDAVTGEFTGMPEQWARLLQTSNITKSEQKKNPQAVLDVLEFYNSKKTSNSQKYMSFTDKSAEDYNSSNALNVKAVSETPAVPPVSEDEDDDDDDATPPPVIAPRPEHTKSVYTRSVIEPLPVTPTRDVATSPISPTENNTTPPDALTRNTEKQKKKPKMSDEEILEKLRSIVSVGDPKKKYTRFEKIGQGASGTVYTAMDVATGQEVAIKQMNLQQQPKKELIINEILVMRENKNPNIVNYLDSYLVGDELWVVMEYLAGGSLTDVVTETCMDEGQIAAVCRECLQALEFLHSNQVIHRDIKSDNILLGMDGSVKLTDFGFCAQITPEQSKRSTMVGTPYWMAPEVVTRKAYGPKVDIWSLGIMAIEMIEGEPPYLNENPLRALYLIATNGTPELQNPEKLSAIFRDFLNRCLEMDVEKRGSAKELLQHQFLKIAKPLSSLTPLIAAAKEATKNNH

Sequence of SLK (Q9H2G2 whole entry): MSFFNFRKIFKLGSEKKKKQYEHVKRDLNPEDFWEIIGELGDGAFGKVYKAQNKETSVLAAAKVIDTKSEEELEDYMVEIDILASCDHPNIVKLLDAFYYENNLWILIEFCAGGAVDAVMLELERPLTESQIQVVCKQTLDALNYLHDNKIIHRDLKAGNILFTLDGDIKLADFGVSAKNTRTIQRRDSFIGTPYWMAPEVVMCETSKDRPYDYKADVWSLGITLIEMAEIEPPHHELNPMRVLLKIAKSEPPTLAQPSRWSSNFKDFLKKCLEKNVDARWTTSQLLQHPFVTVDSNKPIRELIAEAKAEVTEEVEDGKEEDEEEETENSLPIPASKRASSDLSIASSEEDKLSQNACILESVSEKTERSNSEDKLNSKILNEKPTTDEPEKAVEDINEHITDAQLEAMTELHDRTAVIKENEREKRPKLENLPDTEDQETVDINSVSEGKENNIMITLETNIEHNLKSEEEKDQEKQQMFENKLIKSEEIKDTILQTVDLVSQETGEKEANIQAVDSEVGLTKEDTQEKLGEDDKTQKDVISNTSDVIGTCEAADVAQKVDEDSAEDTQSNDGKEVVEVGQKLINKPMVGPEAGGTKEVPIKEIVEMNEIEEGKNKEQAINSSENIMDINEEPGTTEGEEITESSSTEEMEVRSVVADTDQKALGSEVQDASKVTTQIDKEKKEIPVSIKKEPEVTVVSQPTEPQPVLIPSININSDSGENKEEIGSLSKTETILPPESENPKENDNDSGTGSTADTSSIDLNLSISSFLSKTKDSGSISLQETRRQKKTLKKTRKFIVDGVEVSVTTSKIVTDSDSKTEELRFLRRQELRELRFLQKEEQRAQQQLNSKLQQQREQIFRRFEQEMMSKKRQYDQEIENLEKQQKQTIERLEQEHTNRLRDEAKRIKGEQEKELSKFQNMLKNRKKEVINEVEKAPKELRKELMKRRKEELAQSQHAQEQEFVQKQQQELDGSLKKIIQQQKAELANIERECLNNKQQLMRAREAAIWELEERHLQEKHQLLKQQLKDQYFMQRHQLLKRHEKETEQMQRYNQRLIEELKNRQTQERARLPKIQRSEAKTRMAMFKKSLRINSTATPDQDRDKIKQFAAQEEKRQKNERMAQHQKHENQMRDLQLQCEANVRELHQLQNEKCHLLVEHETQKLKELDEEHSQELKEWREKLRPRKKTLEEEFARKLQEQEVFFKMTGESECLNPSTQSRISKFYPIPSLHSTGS

Structure (SMILES): Cc1cccc(-c2ccc(-c3cc4cnc(Nc5cc(C(F)(F)F)ccc5C)nc4n(CCCCN)c3=O)c(Cl)c2)n1 [compound 28, 8-(4-Aminobutyl)-6-(2-chloro-4-(6-methylpyridin-2-yl)phenyl)-2-((2-methyl-5-(trifluoromethyl)phenyl)amino)pyrido[2,3-d]pyrimidin-7(8H)-one]
ΔTm 28 (SLK): 4.5 °C
ΔTm 28 (TTK): -11.0 °C
ΔTm 28 (TLK1): -1.8 °C
ΔTm 28 (Wnk1): 2.8 °C
ΔTm 28 (VRK1): 0.8 °C
ΔTm 28 (STLK3): 10.4 °C
ΔTm 28 (TAF1): 0.4 °C
dTm PAK1 (PAK1): 5.9 °C

Structure (SMILES): Cc1cccc(-c2ccc(-c3cc4cnc(NC(CO)CO)nc4n(CCCCN)c3=O)c(Cl)c2)n1 [compound 24, 8-(4-Aminobutyl)-6-(2-chloro-4-(6-methylpyridin-2-yl)phenyl)-2-((1,3-dihydroxypropan-2-yl)amino)pyrido[2,3-d]pyrimidin-7(8H)-one]
ΔTm MR24 (24) (SLK): 1.9 °C
ΔTm MR24 (24) (TTK): -3.0 °C
ΔTm MR24 (24) (TLK1): -1.8 °C
ΔTm MR24 (24) (Wnk1): 0.2 °C
ΔTm MR24 (24) (VRK1): 0.4 °C
ΔTm MR24 (24) (STLK3): 9.1 °C
ΔTm MR24 (24) (TAF1): -0.1 °C
dTm PAK1 (PAK1): 5.1 °C

Structure (SMILES): CNc1ncc2cc(-c3ccc(-c4cccc(C)n4)cc3Cl)c(=O)n(CCC3CCNCC3)c2n1 [compound 22, 6-(2-Chloro-4-(6-methylpyridin-2-yl)phenyl)-2-(methylamino)-8-(2-(piperidin-4-yl)ethyl)pyrido[2,3-d]pyrimidin-7(8H)-one]
ΔTm 22 (SLK): 3.9 °C
ΔTm 22 (TTK): 3.7 °C
ΔTm 22 (TLK1): 0.2 °C
ΔTm 22 (Wnk1): 1.5 °C
ΔTm 22 (VRK1): -0.7 °C
ΔTm 22 (STLK3): -3.0 °C
ΔTm 22 (TAF1): 0.3 °C

Structure (SMILES): Cc1cccc(-c2ccc(-c3cc4cnc(Nc5ccc(F)c(CO)c5)nc4n(CCCCN)c3=O)c(Cl)c2)n1 [compound 33, 8-(4-Aminobutyl)-6-(2-chloro-4-(6-methylpyridin-2-yl)phenyl)-2-((4-fluoro-3-(hydroxymethyl)phenyl)amino)pyrido[2,3-d]pyrimidin-7(8H)-one]
dTm PAK1 (PAK1): 9.3 °C

Structure (SMILES): Cc1cccc(-c2ccc(-c3cc4cnc(Nc5ccc(C)c(O)c5)nc4n(CCCCN)c3=O)c(Cl)c2)n1 [compound 32, 8-(4-Aminobutyl)-6-(2-chloro-4-(6-methylpyridin-2-yl)phenyl)-2-((3-hydroxy-4-methylphenyl)amino)pyrido[2,3-d]pyrimidin-7(8H)-one]
ΔTm 32 (SLK): 7.8 °C
ΔTm 32 (TTK): 2.2 °C
ΔTm 32 (TLK1): -0.8 °C
ΔTm 32 (Wnk1): 3.5 °C
ΔTm 32 (VRK1): 0.8 °C
ΔTm 32 (STLK3): 16.6 °C
ΔTm 32 (TAF1): 0.5 °C
dTm PAK1 (PAK1): 9.1 °C

Structure (SMILES): Cc1cccc(-c2ccc(-c3cc4cnc(NCCCN5CCCC5=O)nc4n(CCCCN)c3=O)c(Cl)c2)n1 [compound 27, MR30]
ΔTm MR30 (27) (SLK): 2.6 °C
ΔTm MR30 (27) (TTK): -0.3 °C
ΔTm MR30 (27) (TLK1): -2.0 °C
ΔTm MR30 (27) (Wnk1): 0.8 °C
ΔTm MR30 (27) (VRK1): -0.1 °C
ΔTm MR30 (27) (STLK3): 10.0 °C
ΔTm MR30 (27) (TAF1): 0.0 °C
dTm PAK1 (PAK1): 3.6 °C

Structure (SMILES): CNc1ncc2cc(-c3ccc(-c4cccc(C)n4)cc3Cl)c(=O)n(CCCCN)c2n1 [compound 20, MRLW5]
ΔTm MRLW5 (20) (SLK): 9.1 °C
ΔTm MRLW5 (20) (TTK): 2.7 °C
ΔTm MRLW5 (20) (TLK1): 0.6 °C
ΔTm MRLW5 (20) (Wnk1): 1.7 °C
ΔTm MRLW5 (20) (VRK1): 0.0 °C
ΔTm MRLW5 (20) (STLK3): 1.8 °C
ΔTm MRLW5 (20) (TAF1): 0.0 °C

Structure (SMILES): CNc1ncc2cc(-c3ccc(-c4cccc(C)n4)cc3Cl)c(=O)n(C[C@H]3CC[C@H](N)CC3)c2n1 [compound 23, 23]
ΔTm 23 (SLK): 8.3 °C
ΔTm 23 (TTK): 3.5 °C
ΔTm 23 (TLK1): 0.6 °C
ΔTm 23 (Wnk1): 2.1 °C
ΔTm 23 (VRK1): 0.5 °C
ΔTm 23 (STLK3): 3.3 °C
ΔTm 23 (TAF1): -0.5 °C

Results, then the molecule that gave them:

ΔTm 25 (SLK): 5.0 °C
ΔTm 25 (TTK): 1.8 °C
ΔTm 25 (TLK1): -0.9 °C
ΔTm 25 (Wnk1): 2.7 °C
ΔTm 25 (VRK1): 0.6 °C
ΔTm 25 (STLK3): 13.0 °C
ΔTm 25 (TAF1): -0.1 °C
dTm PAK1 (PAK1): 6.8 °C
Structure (SMILES): Cc1cccc(-c2ccc(-c3cc4cnc(NCCCc5ccc(N)cc5)nc4n(CCCCN)c3=O)c(Cl)c2)n1 [compound 25, 8-(4-Aminobutyl)-2-((3-(4-aminophenyl)propyl)amino)-6-(2-chloro-4-(6-methylpyridin-2-yl)phenyl)pyrido[2,3-d]pyrimidin-7(8H)-one]

dTm PAK1 (PAK1): 8.8 °C
Structure (SMILES): COc1cc(N2CCN(C)CC2)ccc1Nc1ncc2cc(-c3ccc(-c4cccc(C)n4)cc3Cl)c(=O)n(CCCCN)c2n1 [compound 36, 8-(4-Aminobutyl)-6-(2-chloro-4-(6-methylpyridin-2-yl)phenyl)-2-((2-methoxy-4-(4-methylpiperazin-1-yl)phenyl)amino)pyrido[2,3-d]pyrimidin-7(8H)-one]

dTm PAK1 (PAK1): 5.0 °C
Structure (SMILES): COc1cc(N2CCOCC2)ccc1Nc1ncc2cc(-c3ccc(-c4cccc(C)n4)cc3Cl)c(=O)n(CCCCN)c2n1 [compound 35, 8-(4-Aminobutyl)-6-(2-chloro-4-(6-methylpyridin-2-yl)phenyl)-2-((2-methoxy-4-morpholino-phenyl)amino)pyrido[2,3-d]pyrimidin-7(8H)-one]

ΔTm 30 (SLK): 8.6 °C
ΔTm 30 (TTK): 5.6 °C
ΔTm 30 (TLK1): -0.9 °C
ΔTm 30 (Wnk1): 4.8 °C
ΔTm 30 (VRK1): 0.3 °C
ΔTm 30 (STLK3): 16.6 °C
ΔTm 30 (TAF1): -0.5 °C
dTm PAK1 (PAK1): 9.1 °C
Structure (SMILES): Cc1cccc(-c2ccc(-c3cc4cnc(Nc5ccc(CCCO)cc5)nc4n(CCCCN)c3=O)c(Cl)c2)n1 [compound 30, 8-(4-Aminobutyl)-6-(2-chloro-4-(6-methylpyridin-2-yl)phenyl)-2-((4-(3-hydroxypropyl)phenyl)amino)pyrido[2,3-d]pyrimidin-7(8H)-one]

dTm PAK1 (PAK1): 4.5 °C
Structure (SMILES): COc1ccc(O)c(Nc2ncc3cc(-c4ccc(-c5cccc(C)n5)cc4Cl)c(=O)n(CCCCN)c3n2)c1 [compound 34, 8-(4-Aminobutyl)-6-(2-chloro-4-(6-methylpyridin-2-yl)phenyl)-2-((2-hydroxy-5-methoxy-phenyl)amino)pyrido[2,3-d]pyrimidin-7(8H)-one]
